The structures appear in SMILES notation.

The melting point is the temperature of the solid-liquid transition.

`CCCCNc1cc(Cl)c2c(c1)C(c1ccccc1F)=NC(C)(C)C(=O)N2C` yielded a melting point of 113 to 115 °C.

`CN(C)C(=O)Oc1ccc(CO)cc1` registered a melting point of 76 °C. For the compound `COC(=O)CCCCCc1nn(-c2ccc([N+](=O)[O-])cc2)c2c1CCCC2`, the melting point fell in the range of 60 to 61 °C.

`Cc1sc2ncc(CO)n2c1C` showed a melting point of 166 to 167 °C. Regarding `COC(=O)CCn1ccc2cc([N+](=O)[O-])ccc21`, the melting point was 97 to 99 °C. In turn, `CC(C)(C)CNC(=NC#N)Nc1cccnc1` yielded a melting point of 214 to 215 °C. `CCOc1cc(OC)ccc1C(CC(=O)Nc1cc(C(N)=O)ccc1C(C)(C)C)CC(C)C` (centres undefined) had a melting point of 216 to 217 °C. Regarding `C[C@@H](O)c1cc2cc(CN3CCOCC3)cc3c(=O)c(C(=O)NCc4ccc(Cl)cc4)cn1c23`, the melting point fell in the range of 75 to 79 °C. Under `CC(C)Nc1nc2c(F)c(F)c(F)cc2[nH]1` stands 182 to 184 °C; under `N#Cc1ncn2c1[C@@H]1CCN1C(=O)c1cc(Cl)ccc1-2`, 258 to 261 °C. Take `Cc1nc(N2CCN(Cc3ccc(OC(F)(F)F)cc3)C2=O)sc1C(=O)NCCC1CC1`: the melting point is 195 to 196 °C. Turning to `CCCCC(COc1cccc(COc2cccc3cccnc23)c1)OC(C)=O` (centres undefined), the melting point fell in the range of 85 to 86 °C.

For `COc1ccc2cc(C(C)=CC(=O)O)cc(F)c2c1`, the melting point was 214 to 217 °C. In the case of `CC(C)(C)OC(=O)c1ncn2c1cc(C(=O)N1CCNCC1)c1cc(Cl)ccc12`, the melting point fell in the range of 239 to 240 °C. Compound `O=C(CBr)NC1(F)C=CC=CC1C(=O)c1ccccc1` (centres undefined) came in with a melting point of 120 to 121 °C.

In turn, `CCOC(=O)c1cn(-c2nc(NC(C)(C)C)c(F)cc2F)c2c(Br)c(F)c(F)cc2c1=O` registered a melting point of 198 to 203 °C. On to `COC(=O)c1cc(N)ccc1O`, for which the melting point lay within 93 to 95 °C.

`CC(=O)Nc1ccc2c(c1)CCCCC2=O` showed a melting point of 105 °C.

For `Cc1nnc(-c2ccc3ccn(-c4ccc(S(C)(=O)=O)cc4)c3c2)o1`, the melting point was in the range of 228 to 229 °C.

In turn, `Cc1c2c(cn1C)NC(=O)C(O)N=C2c1ccccc1` (centres undefined) came in with a melting point of 243 °C. As to `Cc1cc(C)c(N2CCCCC2=O)c(Cl)c1`, the melting point lay within 108 to 109 °C.

`O=C(O)C1=CC(CF)(CF)Oc2ccc([N+](=O)[O-])cc21` returned a melting point of 171 to 172 °C. Under `COc1cccc(Oc2cccnc2C(=O)NCCNC(=O)OC(C)(C)C)c1` stands 81 to 82 °C. For `C[C@@H]1OCc2cc3c(nc21)N1[C@H](C3)CN(C(=O)OC(C)(C)C)C[C@H]1C`, the melting point was in the range of 143 to 144 °C.

Consider `O=CC=Cc1cnc(-c2ccccc2)s1`, for which the melting point was determined as 104 °C. In turn, `COc1cc(Oc2cccc(OC(F)(F)F)c2)nc(C(=O)Nc2ccccc2)c1` registered a melting point of 95 to 98 °C. Compound `CCc1oc2ccccc2c1C(=O)NCc1ccc2c(Br)c(OC(Cc3ccccc3)C(=O)O)ccc2c1` (centres undefined) had a melting point of 162 to 165 °C. On to `CCOC(=O)Cc1c(-c2ccc(C)cc2)nn2cccnc12`, for which the melting point was 69 to 71.5 °C. Consider `COc1ccc(C(C)(C)C)cc1NC(=O)Nc1ccc(-c2cnc3c(c2)NC(=O)CO3)c2ccccc12`, for which the melting point is > 200 °C. Take `CC1(C)CC2(NC(=O)NC2=O)c2ccccc2O1` (centres undefined): the melting point lay in the range of 233 to 235 °C.

In turn, `CN1CCC(c2c[nH]c3ccc(-n4ccnc4)cc23)CC1` returned a melting point of 217 °C. To `C=CCc1nc(CC)n2nc(-c3cc(I)cnc3OCCCC)[nH]c(=O)c12` belongs 134 to 135 °C; to `Cc1ccc(S(=O)(=O)NC(=O)n2sc(Cl)cc2=O)cc1`, 125 to 128 °C. On to `O=C(Nc1ccc2[nH]ccc2c1)c1cc2cc(F)ccc2n1Cc1cccc(F)c1`, for which the melting point fell in the range of 158 to 163 °C. To `O=P(CN=Cc1ccccc1Cl)(c1ccccc1)c1ccccc1` belongs 89 °C; to `O=c1oc(-c2ccc(Cl)cc2)cc(O)c1SCCc1ccccc1`, 161 to 163 °C. The compound `CC(=O)N[C@H](Cc1ccc(C(=O)c2ccccc2)cc1)C(=O)O` registered a melting point of 186 to 187 °C.

As for `Cc1ccccc1C(=O)c1ccc(Nc2ccccc2NC(=O)CO)cc1Cl`, the melting point lay in the range of 127 to 129 °C. With `Oc1ccc2nc(SCCC(F)C(F)(F)Br)oc2c1` (centres undefined), the melting point lay within 64.6 to 67.6 °C. In the case of `Cc1cc(OCc2cn(-c3ccc(C(F)(F)F)cn3)nc2C)ccc1CCC(=O)O`, the melting point was 144 to 145 °C. Compound `O=C1C2CC3CC1CC(OCc1ccc(-c4nc5ccccc5o4)cc1)(C3)C2` came in with a melting point of 159 to 160 °C. To `O=[N+]([O-])c1cccc2c1S(=O)(=O)C=C2` belongs 195 to 197 °C. Take `CC(C)(C)OC(=O)[C@H]1CC[C@@H](c2ccccn2)N1C(=O)CNC(=O)Nc1cccc(C(=O)O)c1` (racemic): the melting point was found to be 174 °C. `COCC1CN(c2ccc3cc(OCc4ccccc4)ccc3c2)C(=O)O1` (centres undefined) came in with a melting point of 150 °C. As for `O=[N+]([O-])c1ccc(Nc2nc(Cl)nc3nc[nH]c23)cc1`, the melting point was > 270 °C. In the case of `Cc1cc(C(O)=S)cc(N)c1Cl`, the melting point was 225 °C. To `C=CCn1c(=O)c2[nH]c(/C=C/c3ccc(OC)c(OC)c3)nc2n(CC=C)c1=O` belongs 252 °C; to `CC(=O)c1c(C)[nH]c(-c2ccccc2)c1N=Cc1ccc(Cl)cc1`, 214 to 215 °C. Take `OC1CSC(Oc2cncc(-c3ccnc(F)c3)c2)C(O)C1O` (centres undefined): the melting point came out at 208 °C. In the case of `Cn1c(=O)oc2cc(N3C[C@H](C(N)=O)OC3=O)ccc21`, the melting point is > 260 °C.

Consider `Nc1nc2c(Cl)cc(F)c(-c3ncc(C(F)(F)F)cc3Cl)c2s1`, for which the melting point fell in the range of 230 to 235 °C. With `NC(=S)CCCc1ccc(Br)cc1`, the melting point fell in the range of 104 to 105 °C. In turn, `Cc1[nH]c2ccccc2c1C(=O)CCN(C)C` came in with a melting point of 172 to 175 °C. The compound `CC1(c2ccc(O)c([N+](=O)[O-])c2)C(=O)Nc2cc(Cl)cc(Cl)c2C1=O` (centres undefined) displayed a melting point of 239 to 240 °C. In turn, `CCNCC1CCN(c2c(F)cc3c(=O)c(C(=O)O)cn(CC(F)(F)F)c3c2F)C1` (centres undefined) yielded a melting point of 222 to 224 °C. The compound `CCOC(=O)c1nc(-c2ccc(=O)n(CC)c2)c(-c2ccccc2)nc1N` gave a melting point of 175 to 179 °C. Regarding `Cc1nc(Nc2nc3ccc([N+](=O)[O-])cc3[nH]2)nc(O)c1CC(=O)O`, the melting point was > 300 °C. `CCOC(=O)C1=C(COCc2nc(CCN3C(=O)c4ccccc4C3=O)cs2)NC(C)=C(C(=O)OC)C1c1ccccc1Cl` (centres undefined) came in with a melting point of 156 to 157 °C. On to `FC(F)C(F)(F)Oc1cccc(Nc2nccc(-c3ccc(Cl)cc3)n2)c1`, for which the melting point was in the range of 133 to 135 °C. Under `CCOC(=O)c1c2n(c3c(Cl)c(N4CCC(N(C)C)C4)c(F)cc3c1=O)C(C)S2` (centres undefined) stands 131 to 133 °C; under `ONC(=S)C=Cc1cccc2ccccc12`, 129 to 130 °C; under `CCOC(=O)C(C(=O)OCC)C1c2ccccc2C(F)(F)C(F)(F)c2ccccc21`, 144 to 146 °C. `OCCc1ccc(CCO)cc1` yielded a melting point of 83 to 84 °C. For `c1ccc(CN2CCN(Cc3n[nH]c4c3CCc3ccccc3-4)CC2)cc1`, the melting point was in the range of 158 to 160 °C. As to `CCOC(=O)c1ccc(-c2ccc(C=O)cc2)cc1`, the melting point was 57 to 59 °C. `CC(C)N(C[C@H](O)[C@H](Cc1ccccc1)NC(=O)OCc1ccccc1)NC(=O)OC(C)(C)C` showed a melting point of 114 to 115 °C. `C#CC(=NOC)C(=O)OC`: the melting point fell in the range of 82 to 83 °C. Under `CC(C)CCCC(C)C1CCC2C3=CC=C4CC(O)C(OCCCO)C(O)C4(C)C3CCC21C` (centres undefined) stands 114 to 116 °C; under `Cc1c(Br)ccc(S(C)(=O)=O)c1S(C)(=O)=O`, 169 to 171 °C; under `Cc1c(-c2ccc(Cl)nc2)sc2nc(N)[nH]c(=O)c12`, 230 to 250 °C. `CCNC(=O)c1cccc([N+](=O)[O-])c1` gave a melting point of 118 to 120 °C. In turn, `CC1C(=O)Oc2cc(N(Cc3ccccc3)Cc3ccccc3)ccc21` (centres undefined) yielded a melting point of 111 to 112 °C.

With `CCC(=O)NCCC1CCc2ccc3c(c21)NC(=O)CO3` (centres undefined), the melting point was 216 to 219 °C. To `CC(C)C(=O)C[C@@H](O)C(=O)O` belongs 67 to 68 °C; to `CC(=O)NCC(=O)NS(=O)(=O)c1ccc(-c2c(-c3ccccc3)noc2C)cc1`, 218 to 219 °C; to `N#Cc1ccc(Cn2c(N3CCC(CNc4nccc(O)n4)CC3)nc3ccccc32)cc1`, 198 °C.

In turn, `NC(=O)CSC(=O)c1ccco1` returned a melting point of 126 to 128 °C. Take `Cc1oc(C=Cc2ccc(Cl)cc2)nc1C(=O)O`: the melting point was 244 to 245 °C.

As for `COC(=O)c1cc(N=Nc2ccc(S(=O)(=O)Nc3ccccn3)cc2)ccc1OC(C)=O`, the melting point was in the range of 204 to 207 °C. Turning to `O=c1[nH]c2cc(Cl)cc(Cl)c2c(=O)n1-c1ccccc1`, the melting point fell in the range of 314 to 319 °C. Compound `Cn1cc(-c2cc(-c3cnc4[nH]ccc4c3)ccn2)n(-c2ccc(N3CCNCC3)c(C(F)(F)F)c2)c1=O` registered a melting point of 163 °C. Compound `CC(C)=CCn1c(-c2ccc3c(c2)OCO3)nc2ccccc21` registered a melting point of 73.8 to 76 °C. `S=C(Nc1ccc(Br)cn1)N[C@@H]1C[C@@H]1c1ccccc1` yielded a melting point of 192 to 193 °C. On to `O=C(O)c1cn(-c2ccc(F)cc2)c2cc(N3CCC(N=Cc4ccc([N+](=O)[O-])cc4)C3)c(F)cc2c1=O` (centres undefined), for which the melting point was in the range of 247 to 248 °C.

In turn, `Nc1ccccc1NC(=O)CCN1CCN(c2cccc(C(F)(F)F)c2)CC1` came in with a melting point of 194 to 196 °C. Under `COCC1CN(c2ccc(C3CCN(C(=O)C=Cc4ccccc4)CC3)cc2)C(=O)O1` (racemic) stands 136 to 138 °C; under `COc1ccccc1[C@@]1(O)[C@H](O)CC(c2ccccc2)(c2ccccc2)[C@@H]2CN(C(=O)Cc3ccccc3N(C)C)C[C@@H]21` (racemic), 175 to 177 °C; under `CN(C)C(=O)c1cc(C(=O)O)c2cc(Cc3ccc(F)cc3)cnc2c1O`, 214 to 216 °C. To `C#Cc1ccc(Nc2c(C(=O)c3nccs3)ccc(F)c2F)c(F)c1` belongs 161 °C.

(Values after a melting point compilation (Tetko et al.; mined from patent text by program, amines drawn as free bases though some values may be those of a salt).)
